Measurements: patent US20110195427A1, “SYSTEMS AND METHODS FOR DETECTING PREGNANCY” (priority 2010, published 2011)
Several values for one entry are separate records, joined by “and”; a condition that tells them apart may be missing. Equal entries are not always repeated. Where two headings read alike, the source gives them in different places.

B1: Soybeans: primary soybean protease inhibitor, 20.7-22.3 kDa (protein, UniProt P01070 25-205, looked up)
Trypsin inhibitor A: DFVLDNEGNPLENGGTYYILSDITAFGGIRAAPTGNERCPLTVVQSRNELDKGIGTIISSPYRIRFIAEGHPLSLKFDSFAVIMLCVGIPTEWSVVEDLPEGPAVKIGENKDAMDGWFRLERVSDDEFNNYKLVFCPQQAEDDKCGDIGISIDHDDGTRRLVVSKNKPLVVQFQKLDKESL

Legend:
peroxidase = assay: Peroxidase assay in saliva (Amplex Red); format: biochemical
Experimental: To determine the effect of various GRAS compounds as inhibitors of peroxidase activity, a standard assay using Amplex® Red (Life Technologies), which releases a fluorescent oxidation product.
The test compounds, such as GRAS materials or cocktails of same, were prepared at a concentration of 500 ppm in distilled water. For the assay, 50 μl samples of test compounds were mixed with 20-30 μl of saliva (either “pooled” or “unpooled”) prior to the addition of Amplex® Red. […] Reactions were allowed to run for 30 minutes during these assays.

α-amylase = target: T1, α-amylase (Homo sapiens, UniProt P0DUB6); assay: α-Amylase inhibition saliva screening (chromogenic substrate, 405 nm); format: biochemical; conditions: for Ave (absorbance at 405 nm): average of 4 readings; for absorbance at 405 nm, single reading: test compound prepared at 5,000 ppm, 37° C.
T1 sequence (P0DUB6 16-511): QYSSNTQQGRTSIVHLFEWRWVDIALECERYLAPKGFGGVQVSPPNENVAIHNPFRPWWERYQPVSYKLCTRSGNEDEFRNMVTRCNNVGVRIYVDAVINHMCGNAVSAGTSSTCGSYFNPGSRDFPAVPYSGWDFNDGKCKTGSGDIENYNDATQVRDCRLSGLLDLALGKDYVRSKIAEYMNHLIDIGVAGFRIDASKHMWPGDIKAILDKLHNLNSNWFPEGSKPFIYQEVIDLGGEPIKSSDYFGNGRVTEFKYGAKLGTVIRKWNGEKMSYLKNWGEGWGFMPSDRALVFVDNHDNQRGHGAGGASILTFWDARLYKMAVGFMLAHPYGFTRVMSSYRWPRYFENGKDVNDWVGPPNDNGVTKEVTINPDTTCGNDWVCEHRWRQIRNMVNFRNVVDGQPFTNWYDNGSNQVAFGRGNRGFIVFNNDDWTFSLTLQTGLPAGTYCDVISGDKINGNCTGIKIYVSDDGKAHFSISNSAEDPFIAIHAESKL
Description: Further details of these five compounds may also be seen in Table 4.

protease = conditions: natural protease inhibitors; cited from earlier work
[1] = 500 ppm, pooled and unpooled saliva controls, 30 minutes, FIGS. 26-29

Molecule | peroxidase inhibition (peroxidase; [1]) | Ave (absorbance at 405 nm) (α-amylase; Time 0 min) | Ave (absorbance at 405 nm) (α-amylase; Time 5 min) | Ave (absorbance at 405 nm) (α-amylase; Time 15 min) | further results
O=C(O)c1ccccc1 [CDI #16, Benzoic acid] |  |  |  |  | peroxidase inhibition (peroxidase): showed significant peroxidase inhibition capabilities
Cn1c(=O)c2c(ncn2C)n(C)c1=O [CDI #33, Caffeine] | showed significant peroxidase inhibition capabilities |  |  |  | 
COc1ccc(O)c(C(C)(C)C)c1 [CDI-039, 3-tert--butyl-hydroxyanisole] | showed significant peroxidase inhibition capabilities |  |  |  | 
Aluminum potassium sulfate dodecahydrate [CDI-42] | showed significant peroxidase inhibition capabilities | 0.92 | 1.85 | 2.29 | absorbance at 405 nm, single reading (α-amylase; Time 0 min): 0.80 and 1.13 and 0.90 and 0.84; absorbance at 405 nm, single reading (α-amylase; Time 5 min): 1.65 and 2.15 and 1.80 and 1.81; absorbance at 405 nm, single reading (α-amylase; Time 15 min): 2.37 and 2.38 and 2.25 and 2.17
Aluminum sulfate hydrate [CDI-34] |  | 0.40 | 0.50 | 0.56 | absorbance at 405 nm, single reading (α-amylase; Time 0 min, sulfate hydrate): 0.40 and 0.36 and 0.45; absorbance at 405 nm, single reading (α-amylase; Time 5 min, sulfate hydrate): 0.49 and 0.50 and 0.52; absorbance at 405 nm, single reading (α-amylase; Time 15 min, sulfate hydrate): 0.53 and 0.61 and 0.54 and 0.56
B1 |  |  |  |  | Inhibitory power (protease): 1.2 times times weight
